Experimental data: patent US10875867B2, “Cyclic ether derivatives of pyrazolo[1,5-a]pyrimidine-3-carboxyamide” (Boehringer Ingelheim International GmbH, priority 2015, dated 2020)

Columns and labels:
PDE10 = PDE10 (Homo sapiens (Human), UniProt Q9Y233); experiment: Phosphodiesterase (PDE) 10 assay with fluorescent substrate (IMAP, fluorescence polarization); type: biochemical; settings: labeled cAMP 30 nM
Experimental: (§1) The IMAP system (Molecular Device) using fluorescence polarization (FP) as detection principle was used to measure enzyme activity. A fluorescent labeled cAMP was used as substrate for the reaction, generating a labeled AMP. The fluorescent AMP binds specifically to the large M(III)-based nano-particles which reduces the rotational speed of the substrate and thus increases its polarization. Detailed Method: The inhibition of PDE 2A or 10 enzyme activity was assessed using IMAP-Phosphodiesterase-cAMP fluorescence labeled substrate (Molecular Devices, Order No. R7506), IMAP TR-FRET screening express (Molecular Devices, Order No. R8160, the TR-FRET component will not be used) and PDE 2A or PDE10 protein expressed upon baculovirus infection in SF9 cells. […] The cells were collected by centrifugation and the pellet frozen in liquid nitrogen before it was resuspended in PBS containing 1% Triton X-100 and protease inhibitors. After 45 min incubation on ice, the cell debris was removed by centrifugation (13.000 rpm, 30 min). […] All reactions were performed in 384 well plates, Perkin Elmer black optiplates and IMAP reaction buffer with 0.1% Tween20 (kit component) Compounds were serial diluted in DMSO. […] Reaction is stopped by adding of 60 μl binding buffer for FP/cAMP (kit component).

PDE 2A = PDE 2A (Homo sapiens (Human), UniProt O00408); experiment: Phosphodiesterase (PDE) 2A assay with fluorescent substrate (IMAP, fluorescence polarization); type: biochemical; settings: labeled cAMP 30 nM, read-out: PDE2 IC50
Experimental: as §1

Chain of PDE 2A (O00408 whole entry, species assumed): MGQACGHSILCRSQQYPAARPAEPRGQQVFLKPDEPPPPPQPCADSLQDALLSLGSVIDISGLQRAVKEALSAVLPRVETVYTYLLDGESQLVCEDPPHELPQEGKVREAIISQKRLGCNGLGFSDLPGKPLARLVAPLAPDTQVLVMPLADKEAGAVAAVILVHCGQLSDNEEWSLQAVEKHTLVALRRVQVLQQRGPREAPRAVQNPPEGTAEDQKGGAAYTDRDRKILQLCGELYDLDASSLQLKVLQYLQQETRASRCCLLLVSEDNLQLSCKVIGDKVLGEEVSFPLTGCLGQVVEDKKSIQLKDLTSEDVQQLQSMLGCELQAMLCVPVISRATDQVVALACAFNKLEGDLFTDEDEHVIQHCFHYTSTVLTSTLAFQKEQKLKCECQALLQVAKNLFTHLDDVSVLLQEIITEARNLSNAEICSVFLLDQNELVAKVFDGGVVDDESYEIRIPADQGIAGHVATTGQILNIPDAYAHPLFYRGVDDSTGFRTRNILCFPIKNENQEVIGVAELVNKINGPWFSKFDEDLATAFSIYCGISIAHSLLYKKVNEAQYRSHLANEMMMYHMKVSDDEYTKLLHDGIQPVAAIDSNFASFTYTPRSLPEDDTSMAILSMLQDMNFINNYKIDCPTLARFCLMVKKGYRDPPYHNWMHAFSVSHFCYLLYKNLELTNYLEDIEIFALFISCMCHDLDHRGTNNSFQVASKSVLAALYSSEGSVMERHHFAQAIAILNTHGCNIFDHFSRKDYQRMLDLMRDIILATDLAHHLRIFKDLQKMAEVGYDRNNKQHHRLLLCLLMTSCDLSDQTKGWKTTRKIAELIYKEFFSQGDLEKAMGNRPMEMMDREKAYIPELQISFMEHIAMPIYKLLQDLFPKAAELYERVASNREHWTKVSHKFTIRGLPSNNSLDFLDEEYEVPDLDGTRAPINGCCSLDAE
Chain of PDE10 (Q9Y233 whole entry): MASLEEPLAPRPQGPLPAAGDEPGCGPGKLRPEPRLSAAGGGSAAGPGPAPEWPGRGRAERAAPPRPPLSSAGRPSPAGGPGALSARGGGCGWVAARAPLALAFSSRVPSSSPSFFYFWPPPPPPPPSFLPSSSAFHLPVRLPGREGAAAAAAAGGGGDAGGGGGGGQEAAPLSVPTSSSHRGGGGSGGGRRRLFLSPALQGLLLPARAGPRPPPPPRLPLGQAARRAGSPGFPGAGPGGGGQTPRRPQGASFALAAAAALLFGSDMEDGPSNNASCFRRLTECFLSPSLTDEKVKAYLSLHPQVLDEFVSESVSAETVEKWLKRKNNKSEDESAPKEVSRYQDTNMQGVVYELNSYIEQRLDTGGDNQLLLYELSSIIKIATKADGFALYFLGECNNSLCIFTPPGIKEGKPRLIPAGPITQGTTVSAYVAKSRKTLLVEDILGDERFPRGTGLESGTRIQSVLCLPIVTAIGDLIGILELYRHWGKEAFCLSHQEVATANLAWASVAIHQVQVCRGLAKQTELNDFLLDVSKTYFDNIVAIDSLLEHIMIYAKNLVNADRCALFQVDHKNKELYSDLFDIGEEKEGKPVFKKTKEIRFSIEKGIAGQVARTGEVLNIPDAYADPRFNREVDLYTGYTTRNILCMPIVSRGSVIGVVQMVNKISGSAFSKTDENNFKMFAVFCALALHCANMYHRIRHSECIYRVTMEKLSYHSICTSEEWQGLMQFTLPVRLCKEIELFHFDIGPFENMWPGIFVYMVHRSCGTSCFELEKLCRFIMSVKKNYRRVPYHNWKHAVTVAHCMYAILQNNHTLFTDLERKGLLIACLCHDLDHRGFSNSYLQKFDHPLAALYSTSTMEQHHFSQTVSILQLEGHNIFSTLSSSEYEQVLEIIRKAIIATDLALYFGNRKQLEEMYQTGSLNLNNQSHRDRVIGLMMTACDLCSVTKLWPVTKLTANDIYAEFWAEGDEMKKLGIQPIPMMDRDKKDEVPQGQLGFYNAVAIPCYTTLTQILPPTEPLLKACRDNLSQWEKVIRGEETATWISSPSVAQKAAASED

| IC50 (PDE10) [nM] | IC50 (PDE 2A) [nM] | Compound |
| --- | --- | --- |
| > 10000 | 124 | Cc1nn2cc(C3CC3)cnc2c1C(=O)NC1(c2ccc(C(F)(F)F)cn2)CCOCC1O (racemic) [Example 63] |
| > 10000 | 22 | O=C(NC1(c2ccc(C(F)(F)F)cc2)CCOCC1O)c1cnn2cc(C3CC3)cnc12 (stereo not shown) [Example 60] |
